Source: article PMC11079064, “Discovery of a brain penetrant small molecule antagonist targeting LPA1 receptors to reduce neuroinflammation and promote remyelination in multiple sclerosis” (Scientific Reports, 2024)
pEC50: −log10 of the molar value. Read-outs that look alike come from different tables or passages of the source.

What was measured:
[1] = system: human cortical slice cultures; assay: Human cortical slice culture, CC1+ cells by immunohistochemistry; assay type: cell-based
Method: Human donor brain was received 14 h after death on wet ice. Upon receipt, the brain was immediately placed into-ice cold DPBS without calcium or magnesium. Cortical regions containing gray-white border were isolated then sliced on a McIlwain tissue chopper set at 400 µm thickness. […] Slices were then processed for qPCR or immunohistochemistry.
Immunohistological evaluation of oligodendrocytes in human brain slice culture: After compound treatment, slices were fixed in 4% PFA overnight. Slices were gently lifted from the membrane insert and washed with at least five 15 min washes in DPBS containing 0.5% Triton-X 100 (0.5%-DPBS) followed by overnight incubation in primary antibodies in blocking solution. Antibodies used were CC-1 (mouse, 1:250, Millipore, Temecula, CA), Olig2 (rabbit 1:250 CellMarque). Slices were washed with at least five 15 min washes in 0.5%-DPBS followed by incubation with secondary antibodies (anti-mouse Alexa488; anti-rabbit, Alexa568, and Hoechst counterstain) in 0.5%-DPBS. All secondary antibodies were produced in goat (Invitrogen, Carlsbad, CA, Carlsbad, CA) and used at 1:250. Filters were excised from insert, mounted with Fluoromount (Millipore Sigma, St. Louis) on a microscope slide and coverslipped. 2 images per slice were acquired using a Nikon A1R confocal microscope and NIS-Elements software. Images were thresholded and counted using ImageJ.

[2] = system: MOG-EAE mouse model; assay: MOG-EAE mouse model, visual evoked potentials; assay type: in vivo; conditions: day 21
Method: To further assess myelin status, we measured conductance velocity in the optic nerve, a heavily myelinated tract that is sensitive to demyelination. To measure conductance, we utilized visual evoked potentials (VEPs), a measure for which clinical translatability makes it an especially salient endpoint[42],[43]. VEPs were measured on day 21. […] In comparison, latency in MOG immunized animals had slowed to 60.9 ms.
VEP recordings were conducted 21–24 days post-MOG induction (for simplification, this will be referred to as a nominal Day 21 VEP throughout this document). To do this, animals were placed in a room with red light conditions and allowed to adapt for 1 h. Animals were anesthetized with an intraperitoneal injection of ketamine/Xyalazine (75/10 mg/kg). Pupils were dilated with 1.0% tropicamide (1 drop per eye) (Akorn Pharmaceuticals, Lake Forest, IL). One minute following application tropicamide, one drop of Genteal (Alcon Laboratories, Fort Worth, TX) was applied to each eye to maintain ocular moisture during anesthesia.
VEPs were conducted using a Celeris system (Diagnosys, Lowell, MA). […] Flash VEPs were recorded from each eye independently and simultaneously. […] VEP waveforms were analyzed using Espion (Diagnosys, Lowell, MA). N1 latency for each eye was determined by averaging N1 from 3 independent VEP traces. Similarly, P1–N1 and N1–P1 amplitudes were determined. […]

[3] = system: rat oligodendrocytes; assay: Oligodendrocyte protection assay (TNFα/IFNγ insult); assay type: cell-based; conditions: TNFα and IFNγ insult
Excerpt: TNFα and IFNγ are two cytokines that, while not normally expressed in the CNS, are elevated in MS[29]. These cytokines can be secreted by both macrophages and microglia[30],[31]. Receptors for these cytokines (TNFR1, TNFR2, and IFNGR) are expressed in oligodendrocytes. Of note, TNFR1 and 2 have been found on oligodendrocytes bordering MS lesions[23],[32], [33]. Further, although receptor expression for these cytokines on OPCs is unknown, addition of either of these cytokines impact differentiation in isolated OPC cultures[28],[34]. Cultured rat OPCs were differentiated with T3 for 24 h then treated with both TNFα and IFNγ Upon cytokine addition, we observed significant cell death consistent with previous observations (Fig. 6C, left[22],[35]–[37]).
OPC Assay: OPCs were plated in poly-L-lysine (Millipore Sigma, St. Louis, MO) coated 96-well Viewplates™ (Perkin Elmer, Boston, MA) at a seeding density of […] per well. Cells were maintained in media composed of DMEM (Invitrogen, Carlsbad, CA) supplemented with B27 (Invitrogen, Carlsbad, CA), N2 (Invitrogen, Carlsbad, CA), penicillin–streptomycin (Invitrogen, Carlsbad, CA), N-acetylcysteine (Millipore Sigma, St. Louis, MO), forskolin (Millipore Sigma, St. Louis, MO), and 25 ng/ml PDGF-AA (Peprotech, Cranbury, New Jersey) for 24 h at 37°, 5% CO2. Compounds were diluted 10× at a concentration range of 0.001–3 µM. […]

[4] = system: MOG-EAE mouse model; assay: MOG-EAE mouse model, body weight and clinical score; assay type: in vivo
Method: This model recapitulates several of the features thought to occur in MS and is a widely used model of inflammatory demyelination.
On Day 0, EAE was induced using a MOG35–55/CFA Emulsion PTX Hooke Kit™ (Hooke Laboratories, Lawrence, MA). Briefly, per manufacturer’s instructions, each mouse was administered a total of 0.2 ml emulsion delivered via dorsal subcutaneous injections of 0.1 ml each to the mid-scapula and lower lumbar regions. Pertussis toxin was prepared per lot-specific instructions and administered via intraperitoneal injection of 0.1 ml (200 ng) on Day 0, 2 h post-MOG administration, and again on Day 1, 24 h post-MOG.
Each treatment group contained 12 mice, except for the age-matched control group which contained 8 mice.
Body weights and clinical scores were recorded daily.

For COc1ccc(NC(=O)N(c2ccccc2C(C)C)C2CCC(C(=O)O)CC2)c(OC(F)F)n1 (stereo not shown) [PIPE-791], the “CC1+ cells” value ([1]; 100 nM) was “significant increase”, the “differentiation by number of CC1+ cells” value ([1]; 300 nM) was “significant differentiation” and the “VEP N1 latency” value ([2]; 0.3 mg/kg) was 54.6 ms. The “VEP N1 latency” value ([2]; 3 mg/kg) was 52 ms, the pEC50 ([3]; data not shown, read-out: EC50 of total cellular viability with Alamar blue) was 7.40 and the pEC50 ([3]; read-out: EC50 of protection of MBP+ oligodendrocytes) was 6.90. For the same compound, the “clinical score by day 24” value ([4]; 0.3 mg/kg oral once daily) was 1.5, the disease onset ([4]; 0.3 mg/kg oral once daily) was 14 days and the peak clinical score ([4]; 0.3 mg/kg oral once daily) was 2.1. The “clinical score at study end” value ([4]; 3 mg/kg oral once daily) was 1.5, the disease onset ([4]; 3 mg/kg oral once daily) was 14 days and the peak clinical score ([4]; 3 mg/kg oral once daily) was 1.4. The “cumulative body weight (day 0 to 24)” value ([4]; 0.3 and 3 mg/kg oral once daily) was “Significant increases”.
